# In patent US5585504A, “Process of making cox-2 inhibitors having a lactone bridge” (Merck & Co., Inc., priority 1994, dated 1996):
# Where two headings read alike, the source gives them in different places.
# Test system: carrageenan-induced paw edema
# Experiment: Rat paw edema assay (carrageenan)
# Type: in vivo, Male Sprague-Dawley rats
# Conditions: po, 1 hr before carrageenan, paw volume 3 hr after
# Method: Male Sprague-Dawley rats (150-200g) were fasted overnight and were given po either vehicle (5% tween 80 or 1% methocel) or a test compound at 9-10 am. One hr later, a line was drawn using a permanent marker at the level above the ankle in one hind paw to define the area of the paw to be monitored. The paw volume (VOh) was measured using a plethysmometer (Ugo-Basile,Italy) based on the principle of water displacement. The animals were then injected subplantarly with 50 ul of a 1% carrageenan solution in saline (FMC Corp, Maine) into the paw using an insulin syringe with a 25-gauge needle (i.e. 500 ug carrageenan per paw). Three hr later, the paw volume (V3h) was measured and the increases in paw volume (V3h -VOh) were calculated. The animals were euthanized by CO2 aphyxiation and the absence or presence of stomach lesions scored. Stomach scores were expressed as the sum of total lesions in mm. Paw edema data were compared with the vehicle-control group and percent inhibition calculated taking the values in the control group as 100%. […] All treatment groups were coded to eliminate observer bias.
structure (smiles),measurement,setting,value
CS(=O)(=O)c1ccc(C2=C(c3ccc(F)c(Br)c3)C(=O)OC2)cc1,ED30,"Rattus norvegicus, 3 h, read-out: ED30 (Table I, column head not given)",~1 mg/kg
CS(=O)(=O)c1ccc(C2=C(c3ccc(Cl)c(Cl)c3)C(=O)OC2)cc1,"ED30 (Table I, column head not given)",,0.23 mg/kg
"COc1ccc2c(c1)c(CC(=O)O)c(C)n2C(=O)c1ccc(Cl)cc1 [Indomethacin, reference compound]",ED30,read-out: ED30,1 mg/kg
